Data: article PMC10905675, “INX-315, a Selective CDK2 Inhibitor, Induces Cell Cycle Arrest and Senescence in Solid Tumors” (Cancer Discovery, 2023)
Like-named read-outs stand apart in the source and are kept apart here.

Legend:
[1] = system: five lines without CCNE1 amplification (ovarian cancer); assay: CellTiter Glo viability assay; type: cell-based; details: 144 h, six days
CSF1R = CSF1R (Homo sapiens, UniProt P07333); assay: SelectScreen follow-up dose-response; type: biochemical; details: dose-response 50 pmol/L to 1 µmol/L
Sequence of CSF1R (P07333 20-972): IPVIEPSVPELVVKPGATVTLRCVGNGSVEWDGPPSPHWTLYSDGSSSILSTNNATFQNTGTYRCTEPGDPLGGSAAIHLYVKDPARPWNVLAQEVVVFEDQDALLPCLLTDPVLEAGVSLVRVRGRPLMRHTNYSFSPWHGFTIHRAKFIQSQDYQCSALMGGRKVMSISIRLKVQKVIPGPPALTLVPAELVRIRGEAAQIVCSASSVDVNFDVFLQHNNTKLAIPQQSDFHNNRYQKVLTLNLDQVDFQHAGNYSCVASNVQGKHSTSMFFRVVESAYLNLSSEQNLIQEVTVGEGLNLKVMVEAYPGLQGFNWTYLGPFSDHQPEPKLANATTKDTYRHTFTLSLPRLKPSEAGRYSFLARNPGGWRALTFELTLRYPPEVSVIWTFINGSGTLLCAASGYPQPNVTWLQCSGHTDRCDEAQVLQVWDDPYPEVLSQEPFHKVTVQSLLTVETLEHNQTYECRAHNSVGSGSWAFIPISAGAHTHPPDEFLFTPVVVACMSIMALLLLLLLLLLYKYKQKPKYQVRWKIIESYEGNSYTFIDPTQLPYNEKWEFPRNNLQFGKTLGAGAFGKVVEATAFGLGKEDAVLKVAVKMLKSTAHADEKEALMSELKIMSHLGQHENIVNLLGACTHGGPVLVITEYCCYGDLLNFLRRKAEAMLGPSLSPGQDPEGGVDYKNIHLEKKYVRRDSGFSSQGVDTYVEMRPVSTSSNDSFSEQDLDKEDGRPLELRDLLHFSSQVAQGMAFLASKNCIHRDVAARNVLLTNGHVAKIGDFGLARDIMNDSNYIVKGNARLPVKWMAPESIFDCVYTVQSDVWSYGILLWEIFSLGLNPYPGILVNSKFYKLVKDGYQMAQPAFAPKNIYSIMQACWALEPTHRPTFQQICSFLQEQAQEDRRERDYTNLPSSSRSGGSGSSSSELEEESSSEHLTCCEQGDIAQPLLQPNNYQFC
Description: (§1) INX-315 was first evaluated in the SelectScreen Biochemical Kinase Profiling at Thermo Fisher Scientific (Madison, WI). The primary screen consisted of INX-315 dosed at a single concentration of 100 nmol/L in 1% DMSO across each platform within the SelectScreen array of assays, LanthaScreen Eu Kinase Binding Assay; AdaptaScreen; and Z'LyteScreen using preestablished conditions at Thermo Fisher Scientific as shown in Supplementary Table S2. […] The follow-up screen consisted of 10-point dose–response curves for INX-315 from 1 µmol/L to 0.0495 nmol/L.

all other targets = assay: SelectScreen follow-up dose-response; type: biochemical; details: dose-response 50 pmol/L to 1 µmol/L; kinases with ≥80% inhibition other than CDK2 complexes and CSF1R
Description: as §1

CDK2/cyclin A1/E1/O = CDK2/cyclin A1/E1/O (Homo sapiens, UniProt P24941); assay: SelectScreen follow-up dose-response; type: biochemical; details: dose-response 50 pmol/L to 1 µmol/L
Description: as §1

CDK1/cyclin B1 = biological target: T1, CDK1/cyclin B1 (Homo sapiens, UniProt P06493); assay: NanoBRET live cell target engagement; type: binding
T1 construct: purchased Millipore 14-450M
T1 sequence (P06493 whole entry): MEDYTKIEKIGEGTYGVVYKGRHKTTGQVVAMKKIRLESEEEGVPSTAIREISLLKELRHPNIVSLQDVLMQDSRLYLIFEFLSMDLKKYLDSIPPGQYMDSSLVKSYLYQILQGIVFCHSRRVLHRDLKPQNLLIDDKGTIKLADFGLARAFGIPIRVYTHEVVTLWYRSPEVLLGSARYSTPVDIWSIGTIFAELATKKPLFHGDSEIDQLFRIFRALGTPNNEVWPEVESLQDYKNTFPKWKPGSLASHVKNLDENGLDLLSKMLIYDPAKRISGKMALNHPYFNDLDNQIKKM
T1 sequence (P14635 whole entry partner): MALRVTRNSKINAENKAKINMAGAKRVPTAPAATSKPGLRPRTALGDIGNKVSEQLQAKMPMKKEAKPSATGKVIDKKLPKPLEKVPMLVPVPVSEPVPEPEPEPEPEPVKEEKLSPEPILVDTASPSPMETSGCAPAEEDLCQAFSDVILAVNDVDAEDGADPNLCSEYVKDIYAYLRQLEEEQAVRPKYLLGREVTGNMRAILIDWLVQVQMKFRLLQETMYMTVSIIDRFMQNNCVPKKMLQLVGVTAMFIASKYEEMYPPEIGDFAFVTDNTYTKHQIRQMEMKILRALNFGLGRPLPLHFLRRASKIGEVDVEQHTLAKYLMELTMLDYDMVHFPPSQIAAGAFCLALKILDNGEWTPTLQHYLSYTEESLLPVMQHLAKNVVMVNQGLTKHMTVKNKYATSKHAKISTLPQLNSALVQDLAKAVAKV
Description: (§2) Reaction Bio (Malvern, PA) conducted NanoBRET assays utilizing Promega NanoLuc technology with two replicates per experiment. The CDK2/E1 and CDK1/B1 values are the average of two separate experiments.
(§3) HEK293 cells were transfected using Opti-MEM without serum containing ratios of 9.0 µg/mL of Transfection Carrier DNA, 1.0 µg/mL of NanoLuc fusion vector DNA and 1 mL of Opti-MEM without phenol red. 30 µL of FuGENE HD transfection reagent was added to each milliliter of DNA mixture to form lipid:DNA complex. After incubation for 20 minutes at room temperature, 1 part lipid/DNA complex was added to 20 parts HEK293 cells in suspension. Cells were then plated and incubated overnight before being trypsinized and resuspended at 2 × 10^5 cells/mL. NanoBRET tracer reagent was added to cells at a ratio of 1 part tracer to 20 parts cell suspension. Cells were added to a 384-well plate and incubated for 1 hour. Plates were removed and incubated at room temperature for 15 minutes to equilibrate before 3x complete substrate plus inhibitor was added. After 2–3 minutes of incubation at room temperature, donor and acceptor wavelengths (460 nm and 600 nm, respectively) were measured using an Envision 2104 plate reader.

CDK2/cyclin A1 = biological target: T2, CDK2/cyclin A1 (Homo sapiens, UniProt P24941); assay: NanoBRET live cell target engagement; type: binding
T2 construct: host or cells: HEK293
Description: as §2, §3

CDK9/cyclin T1 = biological target: T3, CDK9/cyclin T1 (Homo sapiens, UniProt P50750); assay: NanoBRET live cell target engagement; type: binding
T3 construct: purchased Carna 04-110
T3 sequence (P50750 whole entry): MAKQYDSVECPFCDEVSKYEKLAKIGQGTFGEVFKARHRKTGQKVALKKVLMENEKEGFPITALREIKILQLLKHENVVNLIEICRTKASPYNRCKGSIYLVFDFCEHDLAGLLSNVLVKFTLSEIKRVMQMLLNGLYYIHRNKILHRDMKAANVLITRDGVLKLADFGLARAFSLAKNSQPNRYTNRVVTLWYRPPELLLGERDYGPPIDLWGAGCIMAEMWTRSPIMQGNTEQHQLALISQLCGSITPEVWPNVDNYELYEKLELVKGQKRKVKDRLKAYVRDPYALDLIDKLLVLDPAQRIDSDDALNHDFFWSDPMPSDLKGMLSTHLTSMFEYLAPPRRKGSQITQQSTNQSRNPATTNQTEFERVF
T3 sequence (O60563 whole entry partner): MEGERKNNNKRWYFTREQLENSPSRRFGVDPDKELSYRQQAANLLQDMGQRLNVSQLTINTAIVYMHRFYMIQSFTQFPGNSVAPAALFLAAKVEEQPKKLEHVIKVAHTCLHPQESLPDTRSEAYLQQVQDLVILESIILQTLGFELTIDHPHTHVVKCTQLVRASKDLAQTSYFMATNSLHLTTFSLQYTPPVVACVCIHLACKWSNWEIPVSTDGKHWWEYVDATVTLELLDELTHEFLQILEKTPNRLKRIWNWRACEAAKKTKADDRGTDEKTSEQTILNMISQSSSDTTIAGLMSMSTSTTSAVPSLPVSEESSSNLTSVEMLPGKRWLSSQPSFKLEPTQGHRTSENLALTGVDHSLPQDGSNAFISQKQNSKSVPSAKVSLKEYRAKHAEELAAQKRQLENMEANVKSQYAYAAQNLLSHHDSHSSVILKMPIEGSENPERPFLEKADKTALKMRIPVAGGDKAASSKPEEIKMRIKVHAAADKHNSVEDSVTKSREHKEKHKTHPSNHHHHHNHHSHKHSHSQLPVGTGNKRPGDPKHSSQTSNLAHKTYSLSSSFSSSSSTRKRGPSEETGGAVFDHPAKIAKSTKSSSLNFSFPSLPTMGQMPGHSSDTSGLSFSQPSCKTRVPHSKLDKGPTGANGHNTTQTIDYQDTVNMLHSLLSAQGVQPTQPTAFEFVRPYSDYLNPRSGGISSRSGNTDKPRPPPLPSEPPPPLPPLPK
Description: as §2, §3

CDK2/cyclin E1 = biological target: T4, CDK2/cyclin E1 (Homo sapiens, UniProt P24941); assay: NanoBRET live cell target engagement; type: binding
T4 construct: purchased Millipore 14-475
Description: as §2, §3

T47D Abema-resistant = assay: Cell number dose-response; type: cell-based; details: Homo sapiens, read-out: IC50 (nmol/L): T47D
Description: (§4) MCF7 abemaciclib-resistant cells were generated by continuous treatment with abemaciclib at a concentration of 250 nmol/L for 72 days, followed by 500 nmol/L for 48 days. MCF7 fulvestrant-resistant cells were generated by continuous treatment of 100 nmol/L Fulvestrant for 125 days. MCF7 abemaciclib/fulvestrant-resistant cells were generated by treating abemaciclib-resistant cells continuously with 100 nmol/L fulvestrant for 137 days. T47D abemaciclib-resistant lines were generated by continuous treatment with abemaciclib at a concentration of 500 nmol/L for 73 days. T47D fulvestrant–resistant cells were generated by continuous treatment with 100 nmol/L fulvestrant for 68 days. T47D abemaciclib/fulvestrant-resistant cells were generated by treating abemaciclib-resistant cells with continuous treatment of 100 nmol/L Fulvestrant for 60 days. Resistant cell lines were cultured in medium containing drug(s) that the line is resistant to and further authenticated using short tandem repeat profiling.
(§5) An exception to this is MCF7PDRCl5-1 cells which were first cultured for 5 days without palbociclib then plated as described. MCF7PDRCl5-1 cells were treated with either a dose curve of the indicated CDK4/6i or a dose curve of INX-315 + 1 µmol/L of the indicated CDK4/6i. Cell viability was determined using the CellTiter-Glo assay (Promega, G9241) following manufacturer's instructions. Plates were processed on either BioTek Synergy2 multi-mode (Agilent) or ClarioSTAR (BMG Labtech) plate readers. T47D and MCF7 cells were seeded into […] plates using BioTek 406 (Aglient) and treated with a ten-point dose concentration from 10 µmol/L to 0.3 nmol/L of INX-315 for 2× doubling times. Plates were fixed with 4% PFA and stained with Rhodamine-Phalloidin (Bio-Trend, 00027) and DAPI (5 mg/mL, Invitrogen, catalog no. D1306). Plates were imaged using CellInsight CX7 LZR and DAPI-positive cells were counted using Thermo Fisher Scientific HCS Studio Cell Analysis Software.

MCF7 Parent = assay: Cell number dose-response; type: cell-based; details: Homo sapiens
Description: as §4, §5

MCF7 Abema-resistant = assay: Cell number dose-response; type: cell-based; details: Homo sapiens, MCF7, read-out: IC50 (nmol/L): MCF7
Description: as §4, §5

T47D Fulv-resistant = assay: Cell number dose-response; type: cell-based; details: Homo sapiens, read-out: IC50 (nmol/L): T47D
Description: as §4, §5

T47D Parent = assay: Cell number dose-response; type: cell-based; details: Homo sapiens
Description: as §4, §5

MCF7 Fulv-resistant = assay: Cell number dose-response; type: cell-based; details: Homo sapiens, MCF7, read-out: IC50 (nmol/L): MCF7
Description: as §4, §5

[2] = system: five cell lines with CCNE1 amplification (ovarian cancer); assay: CellTiter Glo viability assay; type: cell-based; details: 144 h
MKN1 cells = assay: Cell cycle flow cytometry; type: cell-based; details: 24 hours, 100 nmol/L
OVCAR3 cells = assay: Cell cycle flow cytometry; type: cell-based; details: 24 hours, as little as 30–100 nmol/L
[3] = NanoBRET intracellular IC50 ratio

NS(=O)(=O)c1ccc(Nc2ncc3cc4n(c3n2)C2(CCCCC2)C(=O)NN4)cc1 [INX-315]
IC50 ([1]; read-out: IC50, range): 159 to 3560 nM
IC50 ([1]; read-out: mean IC50): 1440 nM
IC50 (CSF1R): 2.29 nM
IC50 (all other targets): > 10 nM
IC50 (CDK2/cyclin A1/E1/O): ≤ 4 nM
Fold vs. CDK2/E1, CDK1/cyclin B1 (CDK1/cyclin B1; [3]): 163
IC50 (CDK1/cyclin B1; NanoBRET, HEK293 cells, value (SD), read-out: intracellular IC50 (nmol/L) CDK1/cyclin B1): 374 nmol/L
Fold vs. CDK2/E1, CDK2/cyclin A1 (CDK2/cyclin A1; [3]): 31
IC50 (CDK2/cyclin A1; NanoBRET, HEK293 cells, value (SD), read-out: intracellular IC50 (nmol/L) CDK2/cyclin A1): 71 nmol/L
Fold vs. CDK2/E1, CDK9/cyclin T1 (CDK9/cyclin T1; [3]): 1283
IC50 (CDK9/cyclin T1; NanoBRET, HEK293 cells, value (SD), read-out: intracellular IC50 (nmol/L) CDK9/cyclin T1): 2950 nmol/L
Fold vs. CDK2/E1, CDK2/cyclin E1 (CDK2/cyclin E1; [3]): 1
increase of intracellular IC50 over the biochemical IC50, CDK2/cyclin E1 (CDK2/cyclin E1; NanoBRET vs biochemical): 4 fold
IC50 (CDK2/cyclin E1; NanoBRET, HEK293 cells, value (SD), read-out: intracellular IC50 (nmol/L) CDK2/cyclin E1): 2.3 nmol/L
IC50 (T47D Abema-resistant): 7.4 nmol/L
IC50 (MCF7 Parent; MCF7, read-out: IC50 (nmol/L): MCF7, Parent + abema: 500 nmol/L abemaciclib concurrently): 515 nmol/L
IC50 (MCF7 Parent; MCF7, read-out: IC50 (nmol/L): MCF7, Parent cells in DMSO): 267 nmol/L
IC50 (MCF7 Abema-resistant): 45 nmol/L
IC50 (T47D Fulv-resistant): 106 nmol/L
IC50 (T47D Parent; read-out: IC50 (nmol/L): T47D, Parent + abema: 500 nmol/L abemaciclib concurrently): 332 nmol/L
IC50 (T47D Parent; read-out: IC50 (nmol/L): T47D, Parent cells in DMSO): 360 nmol/L
IC50 (MCF7 Fulv-resistant): 3470 nmol/L
IC50 ([2]; read-out: cellular IC50): < 100 nM
IC50 ([2]; read-out: cellular IC50, range): 10 to 64 nM
cell cycle effect (MKN1 cells): strong G1 arrest
cell cycle effect (OVCAR3 cells): potent G1 arrest
